Source: publication PMC9250534, “Synthesis and direct assay of large macrocycle diversities by combinatorial late-stage modification at picomole scale” (Nature Communications, 2022)

target: MDM2 (Homo sapiens, UniProt Q00987); assay: MDM2 binding screen of Libraries 3 and 4: displacement of fluorescent probe F-M8 at 750 nM macrocycle; conditions: Panel b, Library 3: 63 scaffolds combinatorially acylated with 15 carboxylic acids at 30 picomole scale; displacement of fluorescent peptide probe; macrocycle 750 nM
How it was run: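 Cyclic peptide scaffolds were acylated in DMSO with carboxylic acids (20 equiv.), HBTU and DABCO for 6 h at room temperature. Reactions were quenched overnight in 100 mM Tris-Cl pH 7.4, 0.01% Tween20. The fluorescein conjugate was also competed with nutlin-3a.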

Sequence of MDM2 (Q00987 whole entry): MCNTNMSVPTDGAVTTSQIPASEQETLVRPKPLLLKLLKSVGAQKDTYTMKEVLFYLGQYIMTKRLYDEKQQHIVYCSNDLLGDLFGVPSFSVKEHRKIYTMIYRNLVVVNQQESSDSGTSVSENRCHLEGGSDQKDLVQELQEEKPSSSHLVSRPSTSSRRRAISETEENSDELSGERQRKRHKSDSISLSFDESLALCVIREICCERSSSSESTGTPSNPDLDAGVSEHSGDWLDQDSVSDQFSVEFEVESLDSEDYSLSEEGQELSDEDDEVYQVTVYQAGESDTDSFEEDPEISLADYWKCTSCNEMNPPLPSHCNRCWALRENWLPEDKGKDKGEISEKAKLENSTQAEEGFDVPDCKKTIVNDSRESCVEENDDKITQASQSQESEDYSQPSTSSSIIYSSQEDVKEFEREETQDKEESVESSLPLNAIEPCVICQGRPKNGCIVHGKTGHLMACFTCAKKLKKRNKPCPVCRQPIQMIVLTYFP

Structure (SMILES) | fraction of fluorescent probe displaced
CN1C(=O)[C@H](CNC(=O)/C=C/c2ccc(OCc3ccccc3)cc2)NC(=O)[C@H]2CCCN(C2)C(=O)CCSSCCNC(=O)[C@@H]1Cc1c[nH]c2ccccc12 [X-Nip-Dap-NMe-Trp + Acid 110] | 0.015
CN1C(=O)[C@H](CNC(=O)c2cccc(Oc3ccccc3)c2)NC(=O)[C@H]2CCCN(C2)C(=O)CCSSCCNC(=O)[C@@H]1Cc1c[nH]c2ccccc12 [X-Nip-Dap-NMe-Trp + Acid 111] | -0.019
CN1C(=O)[C@H](CNC(=O)/C=C/c2ccc3ccccc3c2)NC(=O)[C@H]2CCCN(C2)C(=O)CCSSCCNC(=O)[C@@H]1Cc1c[nH]c2ccccc12 [X-Nip-Dap-NMe-Trp + Acid 112] | 0.015
CN1C(=O)[C@H](CNC(=O)CCS(=O)(=O)c2ccccc2)NC(=O)[C@H]2CCCN(C2)C(=O)CCSSCCNC(=O)[C@@H]1Cc1c[nH]c2ccccc12 [X-Nip-Dap-NMe-Trp + Acid 114] | 0.021
CN1C(=O)[C@H](CNC(=O)C2COc3ccccc3O2)NC(=O)[C@H]2CCCN(C2)C(=O)CCSSCCNC(=O)[C@@H]1Cc1c[nH]c2ccccc12 (stereo partly drawn) [X-Nip-Dap-NMe-Trp + Acid 115] | -0.012
O=C(NC[C@@H]1NC(=O)[C@H]2CCCN(C2)C(=O)CCSSCCNC(=O)[C@H](Cc2c[nH]c3ccccc23)NC1=O)c1ccc(Cl)s1 [X-Nip-Dap-Trp + Acid 14] | 0.208
O=C(NC[C@@H]1NC(=O)[C@H]2CCCN(C2)C(=O)CCSSCCNC(=O)[C@H](Cc2c[nH]c3ccccc23)NC1=O)c1ccc(Cl)cc1 [X-Nip-Dap-Trp + Acid 25] | 0.194
O=C(NC[C@@H]1NC(=O)[C@H]2CCCN(C2)C(=O)CCSSCCNC(=O)[C@H](Cc2c[nH]c3ccccc23)NC1=O)c1ccc2ccccc2c1 [X-Nip-Dap-Trp + Acid 107] | 0.440
O=C(/C=C/c1ccc(Cl)cc1)NC[C@@H]1NC(=O)[C@H]2CCCN(C2)C(=O)CCSSCCNC(=O)[C@H](Cc2c[nH]c3ccccc23)NC1=O [X-Nip-Dap-Trp + Acid 108] | 0.421
O=C(/C=C/c1ccc(OCc2ccccc2)cc1)NC[C@@H]1NC(=O)[C@H]2CCCN(C2)C(=O)CCSSCCNC(=O)[C@H](Cc2c[nH]c3ccccc23)NC1=O [X-Nip-Dap-Trp + Acid 110] | 0.015
O=C(/C=C/c1ccc2ccccc2c1)NC[C@@H]1NC(=O)[C@H]2CCCN(C2)C(=O)CCSSCCNC(=O)[C@H](Cc2c[nH]c3ccccc23)NC1=O [X-Nip-Dap-Trp + Acid 112] | 0.574
O=C(CCS(=O)(=O)c1ccccc1)NC[C@@H]1NC(=O)[C@H]2CCCN(C2)C(=O)CCSSCCNC(=O)[C@H](Cc2c[nH]c3ccccc23)NC1=O [X-Nip-Dap-Trp + Acid 114] | -0.012
O=C(/C=C/c1ccc(Cl)cc1)NCCN1CC(=O)N[C@@H](Cc2cccc3ccccc23)C(=O)NCCSSCCC(=O)N2CCC[C@@H](C2)C1=O [X-Nip-N-Aeg-1-NaI + Acid 108] | 0.021
O=C(/C=C/c1ccc(OCc2ccccc2)cc1)NCCN1CC(=O)N[C@@H](Cc2cccc3ccccc23)C(=O)NCCSSCCC(=O)N2CCC[C@@H](C2)C1=O [X-Nip-N-Aeg-1-NaI + Acid 110] | -0.00533
O=C1CN(CCNC(=O)c2cccc(Oc3ccccc3)c2)C(=O)[C@H]2CCCN(C2)C(=O)CCSSCCNC(=O)[C@H](Cc2cccc3ccccc23)N1 [X-Nip-N-Aeg-1-NaI + Acid 111] | 0.035
O=C(/C=C/c1ccc2ccccc2c1)NCCN1CC(=O)N[C@@H](Cc2cccc3ccccc23)C(=O)NCCSSCCC(=O)N2CCC[C@@H](C2)C1=O [X-Nip-N-Aeg-1-NaI + Acid 112] | 0.015

Structure (SMILES) | fraction of fluorescent probe displaced
O=C(CCS(=O)(=O)c1ccccc1)NCCN1CC(=O)N[C@@H](Cc2cccc3ccccc23)C(=O)NCCSSCCC(=O)N2CCC[C@@H](C2)C1=O [X-Nip-N-Aeg-1-NaI + Acid 114] | 0.008
O=C1CN(CCNC(=O)c2ccc(Cl)cc2)C(=O)[C@H]2CCCN(C2)C(=O)CCSSCCNC(=O)[C@H](Cc2ccc3ccccc3c2)N1 [X-Nip-N-Aeg-2-Nal + Acid 25] | 0.00133
O=C1CN(CCNC(=O)c2ccc3ccccc3c2)C(=O)[C@H]2CCCN(C2)C(=O)CCSSCCNC(=O)[C@H](Cc2ccc3ccccc3c2)N1 [X-Nip-N-Aeg-2-Nal + Acid 107] | 0.011
O=C(/C=C/c1ccc(OCc2ccccc2)cc1)NCCN1CC(=O)N[C@@H](Cc2ccc3ccccc3c2)C(=O)NCCSSCCC(=O)N2CCC[C@@H](C2)C1=O [X-Nip-N-Aeg-2-Nal + Acid 110] | 0.035
O=C1CN(CCNC(=O)c2cccc(Oc3ccccc3)c2)C(=O)[C@H]2CCCN(C2)C(=O)CCSSCCNC(=O)[C@H](Cc2ccc3ccccc3c2)N1 [X-Nip-N-Aeg-2-Nal + Acid 111] | 0.00133
CC(Oc1cccc(Cl)c1)C(=O)NCCN1CC(=O)N[C@@H](Cc2ccc3ccccc3c2)C(=O)NCCSSCCC(=O)N2CCC[C@@H](C2)C1=O (stereo partly shown) [X-Nip-N-Aeg-2-Nal + Acid 113] | 0.00133
O=C(CCS(=O)(=O)c1ccccc1)NCCN1CC(=O)N[C@@H](Cc2ccc3ccccc3c2)C(=O)NCCSSCCC(=O)N2CCC[C@@H](C2)C1=O [X-Nip-N-Aeg-2-Nal + Acid 114] | 0.015
O=C1CN(CCNC(=O)c2cccc(Oc3ccccc3)c2)C(=O)[C@H]2CCCN(C2)C(=O)CCSSCCNC(=O)[C@H](Cc2c[nH]c3cc(Cl)ccc23)N1 [X-Nip-N-Aeg-Cl-Trp + Acid 111] | -0.00533
O=C(/C=C/c1ccc2ccccc2c1)NCCN1CC(=O)N[C@@H](Cc2c[nH]c3cc(Cl)ccc23)C(=O)NCCSSCCC(=O)N2CCC[C@@H](C2)C1=O [X-Nip-N-Aeg-Cl-Trp + Acid 112] | 0.00133
CC(Oc1cccc(Cl)c1)C(=O)NCCN1CC(=O)N[C@@H](Cc2c[nH]c3cc(Cl)ccc23)C(=O)NCCSSCCC(=O)N2CCC[C@@H](C2)C1=O (stereo partly shown) [X-Nip-N-Aeg-Cl-Trp + Acid 113] | -0.019
O=C(/C=C/c1ccc2ccccc2c1)NCCN1CC(=O)N[C@H](Cc2c[nH]c3ccccc23)C(=O)NCCSSCCC(=O)N2CCC[C@@H](C2)C1=O [X-Nip-N-Aeg-D-Trp + Acid 112] | 0.055
Cn1cc(C[C@@H]2NC(=O)CN(CCNC(=O)c3ccc(Cl)s3)C(=O)[C@H]3CCCN(C3)C(=O)CCSSCCNC2=O)c2ccccc21 [X-Nip-N-Aeg-Me-Trp + Acid 14] | -0.012
Cn1cc(C[C@@H]2NC(=O)CN(CCNC(=O)c3ccc4ccccc4c3)C(=O)[C@H]3CCCN(C3)C(=O)CCSSCCNC2=O)c2ccccc21 [X-Nip-N-Aeg-Me-Trp + Acid 107] | 0.011
Cn1cc(C[C@@H]2NC(=O)CN(CCNC(=O)/C=C/c3ccc(OCc4ccccc4)cc3)C(=O)[C@H]3CCCN(C3)C(=O)CCSSCCNC2=O)c2ccccc21 [X-Nip-N-Aeg-Me-Trp + Acid 110] | 0.00133
CC(Oc1cccc(Cl)c1)C(=O)NCCN1CC(=O)N[C@@H](Cc2cn(C)c3ccccc23)C(=O)NCCSSCCC(=O)N2CCC[C@@H](C2)C1=O (stereo partly shown) [X-Nip-N-Aeg-Me-Trp + Acid 113] | 0.008

same assay, conditions: Panel c, Library 4: best nine scaffolds and 15 additional carboxylic acids; displacement of fluorescent probe

Structure (SMILES) | fraction of fluorescent probe displaced
O=C(/C=C/c1ccc(F)cc1)NC[C@@H]1NC(=O)[C@H]2CCCN(C2)C(=O)CCSSCCNC(=O)[C@H](Cc2c[nH]c3ccccc23)NC1=O [X-Nip-Dap-Trp + Acid 116] | 0.443
CCOc1ccc(/C=C/C(=O)NC[C@@H]2NC(=O)[C@H]3CCCN(C3)C(=O)CCSSCCNC(=O)[C@H](Cc3c[nH]c4ccccc34)NC2=O)cc1 [X-Nip-Dap-Trp + Acid 117] | 0.533
CCCOc1ccc(/C=C/C(=O)NC[C@@H]2NC(=O)[C@H]3CCCN(C3)C(=O)CCSSCCNC(=O)[C@H](Cc3c[nH]c4ccccc34)NC2=O)cc1 [X-Nip-Dap-Trp + Acid 118] | 0.435
O=C(/C=C/c1ccc(Cl)c(Cl)c1)NC[C@@H]1NC(=O)[C@H]2CCCN(C2)C(=O)CCSSCCNC(=O)[C@H](Cc2c[nH]c3ccccc23)NC1=O [X-Nip-Dap-Trp + Acid 119] | 0.435
O=C(/C=C/c1cccc(Cl)c1)NC[C@@H]1NC(=O)[C@H]2CCCN(C2)C(=O)CCSSCCNC(=O)[C@H](Cc2c[nH]c3ccccc23)NC1=O [X-Nip-Dap-Trp + Acid 121] | 0.468
O=C(/C=C/c1cccc(C(F)(F)F)c1)NC[C@@H]1NC(=O)[C@H]2CCCN(C2)C(=O)CCSSCCNC(=O)[C@H](Cc2c[nH]c3ccccc23)NC1=O [X-Nip-Dap-Trp + Acid 122] | 0.395
CC(=Cc1ccccc1)C(=O)NCC1NC(=O)C2CCCN(C2)C(=O)CCSSCCNC(=O)C(Cc2c[nH]c3ccccc23)NC1=O (stereo not drawn) [X-Nip-Dap-Trp + Acid 123] | 0.044
CC(C)c1ccc(C=CC(=O)NCC2NC(=O)C3CCCN(C3)C(=O)CCSSCCNC(=O)C(Cc3c[nH]c4ccccc34)NC2=O)cc1 (stereo not drawn) [X-Nip-Dap-Trp + Acid 127] | 0.313
O=C(NC[C@@H]1NC(=O)[C@H]2CCCN(C2)C(=O)CCSSCCNC(=O)[C@H](Cc2c[nH]c3ccccc23)NC1=O)c1cnc2ccccc2n1 [X-Nip-Dap-Trp + Acid 130] | 0.036
